Measured values published in PubChem BioAssay AID1963968 (Molecular Pharmacology Branch, DTP, NCI, 2024).

Test system: 945468-187-T-J3-PDC spheroids with HUVEC/MSC, viability
Experiment: Anticancer human tumor 945468-187-T-J3-PDC patient-derived rectal carcinoma cell line growth inhibition [PI3K]
Details: for IC50: curve of first compound; for viability, T/C: stronger effect = lower value
Procedure, shortened: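 Multi-cell spheroids combine tumor cells with HUVEC and human MSCs, treated with targeted agents alone or with inavolisib, alpelisib, duvelisib or copanlisib. Concentrations fall in half-log steps from at or near clinical Cmax, or from 10 microM where Cmax is unknown; viability read-out.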

[1] = second compound 0.00316 µM, first compound 0.0316 µM
[2] = second compound 0.00316 µM, first compound 0.1 µM
[3] = second compound 0.00316 µM, first compound 0.316 µM
[4] = second compound 0.00316 µM, first compound 1 µM
[5] = second compound 0.00316 µM, first compound 3.16 µM
[6] = second compound 0.00316 µM, first compound 10 µM
[7] = second compound 0.01 µM, first compound 0.0316 µM
[8] = second compound 0.01 µM, first compound 0.1 µM
[9] = second compound 0.01 µM, first compound 0.316 µM
[10] = second compound 0.01 µM, first compound 1 µM
[11] = second compound 0.01 µM, first compound 3.16 µM
[12] = second compound 0.01 µM, first compound 10 µM
[13] = second compound 0.0316 µM, first compound 0.0316 µM
[14] = second compound 0.0316 µM, first compound 0.1 µM
[15] = second compound 0.0316 µM, first compound 0.316 µM
[16] = second compound 0.0316 µM, first compound 1 µM
[17] = second compound 0.0316 µM, first compound 3.16 µM
[18] = second compound 0.0316 µM, first compound 10 µM
[19] = second compound 0.1 µM, first compound 0.0316 µM
[20] = second compound 0.1 µM, first compound 0.1 µM
[21] = second compound 0.1 µM, first compound 0.316 µM
[22] = second compound 0.1 µM, first compound 1 µM
[23] = second compound 0.1 µM, first compound 3.16 µM
[24] = second compound 0.1 µM, first compound 10 µM
[25] = second compound 0.316 µM, first compound 0.0316 µM
[26] = second compound 0.316 µM, first compound 0.1 µM
[27] = second compound 0.316 µM, first compound 0.316 µM
[28] = second compound 0.316 µM, first compound 1 µM
[29] = second compound 0.316 µM, first compound 3.16 µM
[30] = second compound 0.316 µM, first compound 10 µM
[31] = second compound 1 µM, first compound 0.0316 µM
[32] = second compound 1 µM, first compound 0.1 µM
[33] = second compound 1 µM, first compound 0.316 µM
[34] = second compound 1 µM, first compound 1 µM
[35] = second compound 1 µM, first compound 3.16 µM
[36] = second compound 1 µM, first compound 10 µM
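Also: spheroids exposed to agents for 7 days before viability read.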
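For viability, T/C in this document: 100% = DMSO vehicle control viability.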

CC(C)NCC(C(=O)N1CCN(c2ncnc3c2C(C)CC3O)CC1)c1ccc(Cl)cc1 (stereo unspecified) + COc1c(OCCCN2CCOCC2)ccc2c3n(c(=NC(=O)c4cnc(N)nc4)nc12)CCN3
IC50 (second compound 0.00316 µM): 3680 nM | IC50 (second compound 0.01 µM): 3740 nM | IC50 (second compound 0.0316 µM): 1850 nM | IC50 (second compound 0.1 µM): < 31.6 nM | IC50 (second compound 0.316 µM): < 31.6 nM | IC50 (second compound 1 µM): < 31.6 nM | viability, T/C [1]: 94.2% | viability, T/C [2]: 83.3% | viability, T/C [3]: 88.8% | viability, T/C [4]: 70.6% | viability, T/C [5]: 52.1% | viability, T/C [6]: 39.4% | viability, T/C [7]: 92.6% | viability, T/C [8]: 80.9% | viability, T/C [9]: 89.3% | viability, T/C [10]: 81.7% | viability, T/C [11]: 53.8% | viability, T/C [12]: 28.2% | viability, T/C [13]: 79% | viability, T/C [14]: 84.4% | viability, T/C [15]: 66.7% | viability, T/C [16]: 71.8% | viability, T/C [17]: 31.1% | viability, T/C [18]: 25.8% | viability, T/C [19]: 39% | viability, T/C [20]: 45.5% | viability, T/C [21]: 43.4% | viability, T/C [22]: 27.9% | viability, T/C [23]: 23.5% | viability, T/C [24]: 18.6% | viability, T/C [25]: 19.8% | viability, T/C [26]: 19.3% | viability, T/C [27]: 17.6% | viability, T/C [28]: 18% | viability, T/C [29]: 19.5% | viability, T/C [30]: 13.3% | viability, T/C [31]: 18.6% | viability, T/C [32]: 13.7% | viability, T/C [33]: 15.8% | viability, T/C [34]: 13.6% | viability, T/C [35]: 19.7% | viability, T/C [36]: 11.8%

CCN1CCN(Cc2ccc(Nc3ncc(F)c(-c4cc(F)c5nc(C)n(C(C)C)c5c4)n3)nc2)CC1 + COc1c(OCCCN2CCOCC2)ccc2c3n(c(=NC(=O)c4cnc(N)nc4)nc12)CCN3
IC50 (second compound 0.00316 µM): > 1000 nM | IC50 (second compound 0.01 µM): 662 nM | IC50 (second compound 0.0316 µM): 256 nM | IC50 (second compound 0.1 µM): 5.32 nM | IC50 (second compound 0.316 µM): < 3.16 nM | IC50 (second compound 1 µM): < 3.16 nM | viability, T/C (second compound 0.00316 µM, first compound 0.00316 µM): 88.6% | viability, T/C (second compound 0.00316 µM, first compound 0.01 µM): 83.6% | viability, T/C [1]: 80.5% | viability, T/C [2]: 82.3% | viability, T/C [3]: 95.2% | viability, T/C [4]: 53.5% | viability, T/C (second compound 0.01 µM, first compound 0.00316 µM): 107% | viability, T/C (second compound 0.01 µM, first compound 0.01 µM): 82.3% | viability, T/C [7]: 110% | viability, T/C [8]: 89.8% | viability, T/C [9]: 79.4% | viability, T/C [10]: 33.8% | viability, T/C (second compound 0.0316 µM, first compound 0.00316 µM): 90.2% | viability, T/C (second compound 0.0316 µM, first compound 0.01 µM): 81.8% | viability, T/C [13]: 82.2% | viability, T/C [14]: 75.1% | viability, T/C [15]: 44.3% | viability, T/C [16]: 22.3% | viability, T/C (second compound 0.1 µM, first compound 0.00316 µM): 57% | viability, T/C (second compound 0.1 µM, first compound 0.01 µM): 41.3% | viability, T/C [19]: 30.7% | viability, T/C [20]: 24.1% | viability, T/C [21]: 18.2% | viability, T/C [22]: 17.9% | viability, T/C (second compound 0.316 µM, first compound 0.00316 µM): 25.4% | viability, T/C (second compound 0.316 µM, first compound 0.01 µM): 16.3% | viability, T/C [25]: 14.8% | viability, T/C [26]: 16.9% | viability, T/C [27]: 17.1% | viability, T/C [28]: 16.6% | viability, T/C (second compound 1 µM, first compound 0.00316 µM): 15.2% | viability, T/C (second compound 1 µM, first compound 0.01 µM): 16.1% | viability, T/C [31]: 13.6% | viability, T/C [32]: 16.8% | viability, T/C [33]: 19% | viability, T/C [34]: 16.4%

Cn1ncc(Cl)c1-c1cc(C(=O)NC(CN)Cc2cccc(F)c2)sc1Cl (stereo unspecified) + COc1c(OCCCN2CCOCC2)ccc2c3n(c(=NC(=O)c4cnc(N)nc4)nc12)CCN3
IC50 (second compound 0.00316 µM): 1010 nM | IC50 (second compound 0.01 µM): 653 nM | IC50 (second compound 0.0316 µM): 368 nM | IC50 (second compound 0.1 µM): < 31.6 nM | IC50 (second compound 0.316 µM): < 31.6 nM | IC50 (second compound 1 µM): < 31.6 nM | viability, T/C [1]: 88.3% | viability, T/C [2]: 82.3% | viability, T/C [3]: 77.4% | viability, T/C [4]: 48.8% | viability, T/C [5]: 32.7% | viability, T/C [6]: 25.2% | viability, T/C [7]: 83.4% | viability, T/C [8]: 83.7% | viability, T/C [9]: 67% | viability, T/C [10]: 36.9% | viability, T/C [11]: 30.9% | viability, T/C [12]: 14.7% | viability, T/C [13]: 83% | viability, T/C [14]: 80.3% | viability, T/C [15]: 51.1% | viability, T/C [16]: 29.1% | viability, T/C [17]: 29% | viability, T/C [18]: 12.9% | viability, T/C [19]: 39.4% | viability, T/C [20]: 34.8% | viability, T/C [21]: 28.4% | viability, T/C [22]: 24.3% | viability, T/C [23]: 20.5% | viability, T/C [24]: 7.64% | viability, T/C [25]: 20.5% | viability, T/C [26]: 19.1% | viability, T/C [27]: 17.4% | viability, T/C [28]: 19.6% | viability, T/C [29]: 23.4% | viability, T/C [30]: 3.82% | viability, T/C [31]: 18% | viability, T/C [32]: 16.8% | viability, T/C [33]: 16.9% | viability, T/C [34]: 16.1% | viability, T/C [35]: 16% | viability, T/C [36]: 1.05%
